According to patent publication US20180201592A1, “2-AMINO-1,3,4-THIADIAZINE AND 2-AMINO-1,3,4-OXADIAZINE BASED ANTIFUNGAL AGENTS” (F2G Limited, priority 2015, published 2018):

Tests used:
Settings in all cases: banded MIC grade
[1] = system: Aspergillus fumigatus; experiment: Minimum inhibitory concentration, YAG medium; type: cell-based
Summary of the method: (§1)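 Broth microdilution in YAG medium (1% glucose, 1% ammonium chloride, 0.5% yeast extract) with spore inocula of 1-2×10^4 cfu/mL and doubling dilutions typically spanning 50-0.05 mg/L. Plates were incubated 24 hrs at 35° C and read by OD 485 nm. MIC is the lowest concentration giving >70% growth inhibition versus drug-free control, in mg/L.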

[2] = system: A. fumigatus 210; experiment: Minimum inhibitory concentration, YAG medium; type: cell-based, Aspergillus fumigatus
Summary of the method: as §1

[3] = system: Aspergillus niger; experiment: Minimum inhibitory concentration, YAG medium; type: cell-based
Summary of the method: (§2)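 Compound in DMSO (5 mg/mL stock), diluted in water and doubling-diluted; Aspergillus spores grown in YAG medium 24 hrs at 35° C. Growth read as optical density at 485 nm; MIC given in mg/L.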

[4] = system: Aspergillus flavus; experiment: Minimum inhibitory concentration, YAG medium; type: cell-based
Summary of the method: as §2

[5] = system: Aspergillus terreus; experiment: Minimum inhibitory concentration, YAG medium; type: cell-based
Summary of the method: as §2

[6] = system: C. krusei; experiment: Minimum inhibitory concentration, RPMI medium; type: cell-based
Summary of the method: (§3)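 Broth microdilution in RPMI 1640 medium using doubling dilutions in water prepared from a 5 mg/mL DMSO stock. Plates incubated 24-48 hrs at 35° C; growth read as optical density at 485 nm.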

[7] = system: A. terreus; experiment: Minimum inhibitory concentration, RPMI medium; type: cell-based
Summary of the method: as §3

[8] = system: A. flavus; experiment: Minimum inhibitory concentration, RPMI medium; type: cell-based
Summary of the method: as §3

[9] = system: C. glabrata; experiment: Minimum inhibitory concentration, RPMI medium; type: cell-based
Summary of the method: as §3

[10] = system: C. parapsilosis; experiment: Minimum inhibitory concentration, RPMI medium; type: cell-based
Summary of the method: as §3

[11] = system: A. niger; experiment: Minimum inhibitory concentration, RPMI medium; type: cell-based
Summary of the method: as §3

[12] = system: A. terreus 49; experiment: Minimum inhibitory concentration, RPMI medium; type: cell-based
Summary of the method: as §3

[13] = system: C. tropicalis; experiment: Minimum inhibitory concentration, RPMI medium; type: cell-based
Summary of the method: as §3

[14] = system: C. albicans; experiment: Minimum inhibitory concentration, RPMI medium; type: cell-based
Summary of the method: as §3

[15] = system: A. terreus 49; experiment: Minimum inhibitory concentration, YAG medium; type: cell-based, Aspergillus terreus
Summary of the method: as §2

[16] = system: A. fumigatus 210; experiment: Minimum inhibitory concentration, RPMI medium; type: cell-based
Procedure: (§4) Between 1 and 5 mgs of compound were accurately weighed out into a sterile Eppendorf tube. The compound was dissolved in DMSO to give a solution containing 5 mg/mL. Tubes were stored at −20° C. until required.
(§5) On the day of testing thawed solutions were vortex mixed to ensure homogeneity. 30 μL of solution was removed and added to 570 μL of sterile water in a separate sterile Eppendorf. The thoroughly mixed solution was used to prepare a series of doubling dilutions in water, in a deep well plate. Thirteen replicate plates were prepared using a Minitrak by aspirating 20 μL from each well into eleven clear polystyrene 96 well plates.
(§6) Assays were also performed in RPMI medium (Roswell Park Memorial Media 1640). To perform MIC tests in this medium, dilutions of compounds are prepared in microtitre plates as described above. Fungal strains to be tested are grown and harvested in an identical manner to that described above, and each organism suspension was diluted in RPMI medium, typically containing 2% glucose and 0.135 M MOPS buffer (pH 7.0) to 0.5-2×10^4cfu/mL, rather than in YAG medium. 80 μL of an organism suspension was added to each well of the plate containing drug dilutions.
(§7) This produced MIC plates with a drug range 50-0.05 mg/L and organism inocula of 1-2×10^4 cfu/mL. All plates were incubated for 24-48 hrs at 35° C. Growth was assessed by monitoring the optical density at 485 nm for each well. The MIC of a compound is the lowest drug concentration that inhibits growth of an organism by >80% compared with a drug free control. The following organisms were tested: C. albicans, C. parapsilosis, C. tropicalis, C. glabrata, C. krusei, A. niger, A. fumigatus, A. terreus, A. flavus, A. terreus 49, and A. fumigatus 210.

[17] = system: A. fumigatus; experiment: Minimum inhibitory concentration, RPMI medium; type: cell-based
Procedure: as §4, §5, §6, §7

Row | SMILES | MIC grade, A. FUMIGATUS, YAG media [1] | MIC grade, A. FUMIGATUS 210, YAG media [2] | MIC grade, A. NIGER, YAG media [3] | MIC grade, A. FLAVUS, YAG media [4] | MIC grade, A. TERREUS, YAG media [5] | MIC grade, C. KRUSEI, RPMI media [6] | MIC grade, A. TERREUS, RPMI media [7] | MIC grade, A. FLAVUS, RPMI media [8] | MIC grade, C. GLABRATA, RPMI media [9] | MIC grade, C. PARAPSILOSIS, RPMI media [10] | MIC grade, A. NIGER, RPMI media [11] | MIC grade, A. TERREUS 49, RPMI media [12] | MIC grade, C. TROPICALIS, RPMI media [13] | MIC grade, C. ALBICANS, RPMI media [14] | MIC grade, A. TERREUS 49, YAG media [15] | MIC grade, A. FUMIGATUS 210, RPMI media [16] | MIC grade, A. FUMIGATUS, RPMI media [17]
1 | NC1=NN=C(CCCCOCc2ccc(Cl)cc2Cl)CS1 | 2 (2: 1-5 mg/L) | 2 (2: 1-5 mg/L) | 3 (3: 0.2-1 mg/L) | 2 (2: 1-5 mg/L) | 2 (2: 1-5 mg/L) | 2 (2: 5-20 mg/L) | 2 (2: 5-20 mg/L) | 2 (2: 5-20 mg/L) | 1 (1: ≥20 mg/L) | 2 (2: 5-20 mg/L) | 1 (1: ≥20 mg/L) | 2 (2: 5-20 mg/L) | 2 (2: 5-20 mg/L) | 2 (2: 5-20 mg/L) | 2 (2: 1-5 mg/L) | 1 (1: ≥20 mg/L) | 1 (1: ≥20 mg/L)
2 | NC1=NN=C(CCCCOCc2cccc(C(F)(F)F)c2)CS1 | 3 (3: 0.2-1 mg/L) | 3 (3: 0.2-1 mg/L) | 3 (3: 0.2-1 mg/L) | 3 (3: 0.2-1 mg/L) | 2 (2: 1-5 mg/L) | 2 (2: 5-20 mg/L) | 2 (2: 5-20 mg/L) | 2 (2: 5-20 mg/L) | 1 (1: ≥20 mg/L) | 2 (2: 5-20 mg/L) | 2 (2: 5-20 mg/L) | 2 (2: 5-20 mg/L) | 2 (2: 5-20 mg/L) | 3 (3: 1-5 mg/L) | 2 (2: 1-5 mg/L) | 1 (1: ≥20 mg/L) | 2 (2: 5-20 mg/L)
3 | NC1=NN=C(CCCCOCc2cccc(Br)c2)CS1 | 4 (4: <0.2 mg/L) | 4 (4: <0.2 mg/L) | 4 (4: <0.2 mg/L) | 4 (4: <0.2 mg/L) | 4 (4: <0.2 mg/L) | 4 (4: <1 mg/L) | 3 (3: 1-5 mg/L) | 4 (4: <1 mg/L) | 3 (3: 1-5 mg/L) | 4 (4: <1 mg/L) | 3 (3: 1-5 mg/L) | 3 (3: 1-5 mg/L) | 4 (4: <1 mg/L) | 4 (4: <1 mg/L) | 4 (4: <0.2 mg/L) | 2 (2: 5-20 mg/L) | 4 (4: <1 mg/L)
4 | NC1=NN=C(CCCCOCc2cccc(C3CC3)c2)CS1 | 3 (3: 0.2-1 mg/L) | 3 (3: 0.2-1 mg/L) | 3 (3: 0.2-1 mg/L) | 3 (3: 0.2-1 mg/L) | 3 (3: 0.2-1 mg/L) | 4 (4: <1 mg/L) | 2 (2: 5-20 mg/L) | 2 (2: 5-20 mg/L) | 2 (2: 5-20 mg/L) | 4 (4: <1 mg/L) | 2 (2: 5-20 mg/L) | 2 (2: 5-20 mg/L) | 4 (4: <1 mg/L) | 4 (4: <1 mg/L) | 3 (3: 0.2-1 mg/L) | 2 (2: 5-20 mg/L) | 3 (3: 1-5 mg/L)
5 | NC1=NN=C(CCCCOCc2cccc(Oc3ccccc3)c2)CS1 | 1 (1: ≥5 mg/L) | 1 (1: ≥5 mg/L) | 2 (2: 1-5 mg/L) | 2 (2: 1-5 mg/L) | 1 (1: ≥5 mg/L) | 3 (3: 1-5 mg/L) | 1 (1: ≥20 mg/L) | 1 (1: ≥20 mg/L) | 1 (1: ≥20 mg/L) | 3 (3: 1-5 mg/L) | 1 (1: ≥20 mg/L) | 1 (1: ≥20 mg/L) | 3 (3: 1-5 mg/L) | 3 (3: 1-5 mg/L) | 1 (1: ≥5 mg/L) | 1 (1: ≥20 mg/L) | 1 (1: ≥20 mg/L)
6 | NC1=NN=C(CCCCOCc2cccc(-c3ccccc3)c2)CS1 | 1 (1: ≥5 mg/L) | 1 (1: ≥5 mg/L) | 2 (2: 1-5 mg/L) | 2 (2: 1-5 mg/L) | 2 (2: 1-5 mg/L) | 2 (2: 5-20 mg/L) | 2 (2: 5-20 mg/L) | 2 (2: 5-20 mg/L) | 1 (1: ≥20 mg/L) | 2 (2: 5-20 mg/L) | 1 (1: ≥20 mg/L) | 1 (1: ≥20 mg/L) | 2 (2: 5-20 mg/L) | 2 (2: 5-20 mg/L) | 2 (2: 1-5 mg/L) | 1 (1: ≥20 mg/L) | 1 (1: ≥20 mg/L)
7 | NC1=NN=C(CCCCOCc2cc(F)cc(F)c2)CS1 | 4 (4: <0.2 mg/L) | 4 (4: <0.2 mg/L) | 4 (4: <0.2 mg/L) | 4 (4: <0.2 mg/L) | 4 (4: <0.2 mg/L) | 4 (4: <1 mg/L) | 3 (3: 1-5 mg/L) | 3 (3: 1-5 mg/L) | 3 (3: 1-5 mg/L) | 4 (4: <1 mg/L) | 3 (3: 1-5 mg/L) | 3 (3: 1-5 mg/L) | 4 (4: <1 mg/L) | 4 (4: <1 mg/L) | 4 (4: <0.2 mg/L) | 2 (2: 5-20 mg/L) | 4 (4: <1 mg/L)
8 | NC1=NN=C(CCCCOCc2ccc(Cl)c(F)c2)CS1 | 4 (4: <0.2 mg/L) | 4 (4: <0.2 mg/L) | 4 (4: <0.2 mg/L) | 4 (4: <0.2 mg/L) | 4 (4: <0.2 mg/L) | 4 (4: <1 mg/L) | 3 (3: 1-5 mg/L) | 4 (4: <1 mg/L) | 4 (4: <1 mg/L) | 4 (4: <1 mg/L) | 4 (4: <1 mg/L) | 3 (3: 1-5 mg/L) | 4 (4: <1 mg/L) | 4 (4: <1 mg/L) | 4 (4: <0.2 mg/L) | 2 (2: 5-20 mg/L) | 4 (4: <1 mg/L)
